Measurements: publication PMC7778552, “A Double-Edged Sword: The Anti-Cancer Effects of Emodin by Inhibiting the Redox-Protective Protein MTH1 and Augmenting ROS in NSCLC” (Journal of Cancer, 2021)

Target: T1, MutT homolog 1 (MTH1) (Homo sapiens, UniProt P36639)
T1 construct: gene NUDT1; N-terminal His-tagged, expressed in E. coli BL21-codon plus
Experiment: SPR with immobilized purified MTH1 (amine coupling)
Assay type: binding

Structure (SMILES): Cc1cc(O)c2c(c1)C(=O)c1cc(O)cc(O)c1C2=O [emodin, 1,3,8-trihydroxy-6-methylanthraquinone]
- Kd: 22.2 ± 0.68 µM
